Experimental data taken from PubChem BioAssay (NCI).
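Results reflect a 48-hour exposure of cells in 96-well plates to compound at five concentrations. TGI is the concentration that stops growth completely.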

What was measured:
Experiment in all cases: NCI anticancer screen, dose series, 48 h
[1] = tested on: HS 578T breast
[2] = tested on: MDA-MB-435
[3] = tested on: SNB-19 CNS
[4] = tested on: HOP-62 NSCLC
[5] = tested on: OVCAR-4 ovarian
[6] = tested on: K-562 leukemia
[7] = tested on: BT-549 breast
[8] = tested on: ACHN renal
[9] = tested on: RPMI-8226 leukemia
[10] = tested on: OVCAR-3 ovarian
[11] = tested on: NCI/ADR-RES ovarian
[12] = tested on: MALME-3M melanoma
[13] = tested on: MDA-MB-231 breast
[14] = tested on: EKVX NSCLC
[15] = tested on: KM12 colon
[16] = tested on: HCT-15 colon
[17] = tested on: T-47D breast
[18] = tested on: HCC-2998 colon
[19] = tested on: HL-60(TB) leukemia
[20] = tested on: TK-10 renal

Row | Structure (SMILES) | TGI [1] [µM] | TGI [2] [µM] | TGI [3] [µM] | TGI [4] [µM] | TGI [5] [µM] | TGI [6] [µM] | TGI [7] [µM] | TGI [8] [µM] | TGI [9] [µM] | TGI [10] [µM] | TGI [11] [µM] | TGI [12] [µM] | TGI [13] [µM] | TGI [14] [µM] | TGI [15] [µM] | TGI [16] [µM] | TGI [17] [µM] | TGI [18] [µM] | TGI [19] [µM] | TGI [20] [µM]
1 | O=[N+]([O-])C(=C1Nc2ccccc2N1)/C(Cl)=C(/Cl)N1CCOCC1 | > 100 | > 100 | > 100 | > 100 | 61 | > 100 | > 100 | > 100 | > 100 | 96.6 | > 100 | > 100 | > 100 | > 100 | > 100 | > 100 | 51.2 | > 100 | – | –
2 | Cc1ccc(/C=C2\CCCC(CN(C)C)C2=O)cc1 (configuration not stated) | > 100 | 3.74 | 30.1 | 34.7 | 3.8 | > 100 | 6.4 | 7.19 | – | 3.22 | 17.1 | 3.77 | 3.08 | 31.5 | 3.57 | 4.23 | 3.25 | 27.4 | > 100 | 8.26
3 | COC(=O)[C@@H](Cc1ccccc1)N1O[C@]12CCCC[C@@H]2NC(=O)OC(C)(C)C (some centres not stated) | 55.8 | 54.5 | > 100 | 38.2 | > 100 | > 100 | 34.8 | 32.5 | > 100 | 57.1 | 52.4 | 56 | 42.4 | 82.3 | > 100 | 33.5 | 62.4 | > 100 | – | 49
4 | O=C(Cc1nc2ncccc2[nH]c1=O)c1c[nH]c2ccccc12 | 40.8 | 30.7 | 35.7 | 36.9 | – | 63.2 | 62 | 30.1 | 91.8 | 32.5 | > 100 | 32.7 | 35.3 | 56.9 | 34.5 | 95.8 | 34.5 | 34.6 | > 100 | 30.4
5 | CN(C)c1ccc(-c2ccc(N(C)C)c3n[se]nc23)c2n[se]nc12 | > 100 | > 100 | – | > 100 | > 100 | > 100 | > 100 | > 100 | > 100 | > 100 | > 100 | > 100 | > 100 | > 100 | > 100 | > 100 | > 100 | > 100 | > 100 | > 100
6 | CC(C)C(C/C=C1/CC(CO)(COC(=O)c2ccccc2)OC1=O)C(C)C (configuration not stated) | 24.3 | 95.5 | 31.1 | 22.4 | 30 | 48 | 33.2 | 28.2 | – | 32.2 | 38.8 | 25.1 | 32.8 | 35.9 | 31.7 | 36.9 | 31.2 | 40.8 | – | 32.3
